Data from ChEMBL document CHEMBL3758169, “4-Aminoindazolyl-dihydrofuro[3,4-d]pyrimidines as non-covalent inhibitors of mutant epidermal growth factor receptor tyrosine kinase” (Bioorg Med Chem Lett, 2016).

Columns and labels:
[1] = molecular target: MAP kinase-activated protein kinase 2 (Homo sapiens) (UniProt P49137); test: Inhibition of MAPKAPK2 (unknown origin) at 100 nM
[2] = molecular target: Dual specificity mitogen-activated protein kinase kinase 1 (Homo sapiens) (UniProt Q02750); test: Inhibition of MEK1 (unknown origin) at 100 nM
[3] = molecular target: Mitogen-activated protein kinase kinase kinase 3 (Homo sapiens) (UniProt Q99759); test: Inhibition of MEKK3 (unknown origin) at 100 nM
[4] = molecular target: Mitogen-activated protein kinase kinase kinase 10 (Homo sapiens) (UniProt Q02779); test: Inhibition of MLK2 (unknown origin) at 100 nM
[5] = molecular target: Hepatocyte growth factor receptor (Homo sapiens) (UniProt P08581); test: Inhibition of MET (unknown origin) at 100 nM
[6] = molecular target: Mitogen-activated protein kinase kinase kinase 14 (Homo sapiens) (UniProt Q99558); test: Inhibition of NIK (unknown origin) at 100 nM
[7] = molecular target: Serine/threonine-protein kinase PAK 4 (Homo sapiens) (UniProt O96013); test: Inhibition of PAK4 (unknown origin) at 100 nM
[8] = molecular target: Platelet-derived growth factor receptor beta (Homo sapiens) (UniProt P09619); test: Inhibition of PDGFRbeta (unknown origin) at 100 nM
[9] = molecular target: Phosphatidylinositol 4-phosphate 3-kinase C2 domain-containing subunit beta (Homo sapiens) (UniProt O00750); test: Inhibition of PI3KC2b (unknown origin) at 100 nM
[10] = organism: Homo sapiens; test: Inhibition of PKCbeta1 (unknown origin) at 100 nM
[11] = molecular target: 5'-AMP-activated protein kinase catalytic subunit alpha-1 (Homo sapiens) (UniProt Q13131); test: Inhibition of PRKAA1 (unknown origin) at 100 nM
5'-AMP-activated protein kinase catalytic subunit alpha-1 (Homo sapiens), sequence (Q13131 whole entry, looked up): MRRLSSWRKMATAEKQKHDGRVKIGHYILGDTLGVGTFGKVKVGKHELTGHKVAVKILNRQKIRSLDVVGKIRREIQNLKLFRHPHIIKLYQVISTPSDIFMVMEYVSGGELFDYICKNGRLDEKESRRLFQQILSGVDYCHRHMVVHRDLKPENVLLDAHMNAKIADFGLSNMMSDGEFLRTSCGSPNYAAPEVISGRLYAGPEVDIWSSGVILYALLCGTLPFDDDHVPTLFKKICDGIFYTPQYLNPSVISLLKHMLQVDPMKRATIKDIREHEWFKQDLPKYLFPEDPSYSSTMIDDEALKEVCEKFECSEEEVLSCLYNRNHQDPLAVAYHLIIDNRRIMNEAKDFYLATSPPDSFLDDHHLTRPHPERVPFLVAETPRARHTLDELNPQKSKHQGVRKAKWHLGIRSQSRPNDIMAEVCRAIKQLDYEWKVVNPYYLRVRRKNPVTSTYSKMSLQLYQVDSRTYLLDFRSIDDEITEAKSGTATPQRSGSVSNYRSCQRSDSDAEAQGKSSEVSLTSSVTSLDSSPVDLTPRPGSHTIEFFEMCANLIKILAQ

[12] = molecular target: Ribosomal protein S6 kinase alpha-1 (Homo sapiens) (UniProt Q15418); test: Inhibition of RSK1 (unknown origin) at 100 nM
[13] = molecular target: Proto-oncogene tyrosine-protein kinase Src (Homo sapiens) (UniProt P12931); test: Inhibition of SRC (unknown origin) at 100 nM
Proto-oncogene tyrosine-protein kinase Src (Homo sapiens), sequence (P12931 2-536 limits assumed): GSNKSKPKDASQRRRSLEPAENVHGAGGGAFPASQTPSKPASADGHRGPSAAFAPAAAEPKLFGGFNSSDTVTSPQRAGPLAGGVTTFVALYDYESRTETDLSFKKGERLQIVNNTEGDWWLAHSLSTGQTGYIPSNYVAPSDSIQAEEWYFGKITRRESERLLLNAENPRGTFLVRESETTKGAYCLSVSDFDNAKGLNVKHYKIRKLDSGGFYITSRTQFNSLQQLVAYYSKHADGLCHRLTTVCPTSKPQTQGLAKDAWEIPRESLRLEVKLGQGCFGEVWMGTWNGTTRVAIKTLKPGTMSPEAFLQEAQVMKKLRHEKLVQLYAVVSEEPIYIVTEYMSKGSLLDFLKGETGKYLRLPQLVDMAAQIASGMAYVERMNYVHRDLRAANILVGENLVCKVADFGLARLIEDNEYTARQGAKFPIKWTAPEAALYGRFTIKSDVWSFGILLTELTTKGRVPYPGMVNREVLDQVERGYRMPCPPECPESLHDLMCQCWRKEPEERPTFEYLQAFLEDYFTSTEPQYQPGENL

[14] = molecular target: Non-receptor tyrosine-protein kinase TYK2 (Homo sapiens) (UniProt P29597); test: Inhibition of TYK2 (unknown origin) at 100 nM
[15] = molecular target: Tyrosine-protein kinase ZAP-70 (Homo sapiens) (UniProt P43403); test: Inhibition of ZAP70 (unknown origin) at 100 nM
Tyrosine-protein kinase ZAP-70 (Homo sapiens), sequence (P43403 whole entry): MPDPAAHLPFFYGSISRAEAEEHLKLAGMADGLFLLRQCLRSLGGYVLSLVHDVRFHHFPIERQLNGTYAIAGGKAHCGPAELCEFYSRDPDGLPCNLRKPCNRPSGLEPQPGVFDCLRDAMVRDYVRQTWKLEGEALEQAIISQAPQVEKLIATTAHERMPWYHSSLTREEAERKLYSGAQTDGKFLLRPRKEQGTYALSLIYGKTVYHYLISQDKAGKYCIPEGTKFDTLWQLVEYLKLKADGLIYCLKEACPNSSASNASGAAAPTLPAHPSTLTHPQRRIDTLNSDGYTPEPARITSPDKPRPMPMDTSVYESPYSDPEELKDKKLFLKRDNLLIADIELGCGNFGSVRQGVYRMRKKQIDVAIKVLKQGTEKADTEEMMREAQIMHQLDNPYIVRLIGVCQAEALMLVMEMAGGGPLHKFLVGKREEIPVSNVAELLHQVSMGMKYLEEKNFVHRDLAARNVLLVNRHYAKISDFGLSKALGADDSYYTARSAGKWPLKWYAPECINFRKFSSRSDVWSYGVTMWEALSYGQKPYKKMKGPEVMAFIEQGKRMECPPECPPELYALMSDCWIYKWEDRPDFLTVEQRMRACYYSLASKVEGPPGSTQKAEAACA

[16] = molecular target: Serine/threonine-protein kinase mTOR (Homo sapiens) (UniProt P42345); test: Inhibition of mTOR (unknown origin) at 100 nM
[17] = molecular target: Mitogen-activated protein kinase 14 (Homo sapiens) (UniProt Q16539); test: Inhibition of p38alpha (unknown origin) by direct binding assay at 100 nM
Mitogen-activated protein kinase 14 (Homo sapiens), sequence (Q16539 whole entry): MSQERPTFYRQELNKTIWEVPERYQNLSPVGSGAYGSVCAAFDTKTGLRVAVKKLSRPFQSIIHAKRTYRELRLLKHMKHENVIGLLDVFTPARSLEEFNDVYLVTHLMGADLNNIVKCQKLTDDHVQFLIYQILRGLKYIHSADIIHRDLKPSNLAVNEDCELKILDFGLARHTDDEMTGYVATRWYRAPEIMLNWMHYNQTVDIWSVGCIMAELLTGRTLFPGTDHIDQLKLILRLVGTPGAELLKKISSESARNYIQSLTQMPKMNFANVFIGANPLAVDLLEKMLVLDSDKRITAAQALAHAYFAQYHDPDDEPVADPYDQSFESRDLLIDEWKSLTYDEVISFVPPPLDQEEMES

[18] = Efflux ratio of permeability from basolateral to apical side over apical to basolateral side in MDCK cells; type: ADME, cell-based, Canis lupus familiaris; details: dog
[19] = molecular target: Epidermal growth factor receptor (Homo sapiens, UniProt P00533, L858R/T790M); test: Inhibition of EGFR T790M/L858R mutant (unknown origin); type: protein assay
[20] = molecular target: Epidermal growth factor receptor (Homo sapiens, UniProt P00533, L858R); test: Inhibition of EGFR L858R mutant (unknown origin); type: protein assay
[21] = molecular target: T1, Epidermal growth factor receptor (Homo sapiens, UniProt P00533); test: Inhibition of EGFR deletion (746 to 750 residues) mutant (unknown origin); type: protein assay
Target sequence in this assay (P00533 25-1210 limits assumed, stated change not applied): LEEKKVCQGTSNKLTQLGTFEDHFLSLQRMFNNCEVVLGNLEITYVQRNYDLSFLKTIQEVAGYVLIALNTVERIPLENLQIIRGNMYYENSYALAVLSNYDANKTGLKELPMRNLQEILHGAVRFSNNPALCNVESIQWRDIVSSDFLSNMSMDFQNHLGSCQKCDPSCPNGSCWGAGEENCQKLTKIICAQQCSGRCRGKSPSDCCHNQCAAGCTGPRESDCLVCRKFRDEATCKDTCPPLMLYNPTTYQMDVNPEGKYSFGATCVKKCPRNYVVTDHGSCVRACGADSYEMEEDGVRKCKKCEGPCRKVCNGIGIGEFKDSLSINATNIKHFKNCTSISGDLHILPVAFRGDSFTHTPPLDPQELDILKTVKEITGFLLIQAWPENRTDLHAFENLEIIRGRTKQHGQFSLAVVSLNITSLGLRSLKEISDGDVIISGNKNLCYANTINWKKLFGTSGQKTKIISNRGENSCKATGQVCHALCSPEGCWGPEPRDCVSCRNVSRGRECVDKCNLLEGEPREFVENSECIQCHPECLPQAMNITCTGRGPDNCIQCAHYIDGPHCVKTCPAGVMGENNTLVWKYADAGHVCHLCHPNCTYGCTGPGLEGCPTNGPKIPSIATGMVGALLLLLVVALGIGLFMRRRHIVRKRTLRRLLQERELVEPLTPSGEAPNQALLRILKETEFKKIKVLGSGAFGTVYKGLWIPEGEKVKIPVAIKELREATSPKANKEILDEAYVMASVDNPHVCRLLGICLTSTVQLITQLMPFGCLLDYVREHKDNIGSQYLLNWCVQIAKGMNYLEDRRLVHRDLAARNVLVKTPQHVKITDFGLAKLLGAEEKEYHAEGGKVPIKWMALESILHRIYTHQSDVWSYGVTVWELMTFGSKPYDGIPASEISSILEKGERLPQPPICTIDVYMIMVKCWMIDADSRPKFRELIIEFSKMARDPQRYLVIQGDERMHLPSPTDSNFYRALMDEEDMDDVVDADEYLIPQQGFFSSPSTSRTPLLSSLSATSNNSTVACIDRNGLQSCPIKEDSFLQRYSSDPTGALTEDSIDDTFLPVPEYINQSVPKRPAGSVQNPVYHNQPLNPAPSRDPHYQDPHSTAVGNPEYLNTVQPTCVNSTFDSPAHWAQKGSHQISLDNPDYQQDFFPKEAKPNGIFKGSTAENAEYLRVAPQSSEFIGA

[22] = molecular target: T1, Epidermal growth factor receptor; test: Inhibition of EGFR T790M/deletion (746 to 750 residues) mutant (unknown origin); type: protein assay
Target sequence in this assay (P00533 25-1210 limits assumed, stated change not applied): as above

[23] = molecular target: Aurora kinase B (Homo sapiens) (UniProt Q96GD4); test: Inhibition of Aurora B (unknown origin) at 100 nM
[24] = molecular target: CDK2/Cyclin A2 (Homo sapiens) (UniProt P24941+P20248); test: Inhibition of CDK2/cyclinA (unknown origin) at 100 nM; type: protein-complex assay
[25] = molecular target: Cyclin-dependent kinase 7/ cyclin H (Homo sapiens) (UniProt P51946+P50613); test: Inhibition of CDK7/cyclinH (unknown origin) at 100 nM; type: protein-complex assay
[26] = molecular target: Mitogen-activated protein kinase kinase kinase 8 (Homo sapiens) (UniProt P41279); test: Inhibition of COT (unknown origin) at 100 nM
[27] = molecular target: T1, Epidermal growth factor receptor; test: Inhibition of EGFR (unknown origin) at 100 nM
[28] = system: Epidermal growth factor receptor (Homo sapiens), P00533 [L858R]; test: Inhibition of EGFR L858R mutant (unknown origin) at 100 nM; type: protein assay
[29] = system: Epidermal growth factor receptor (Homo sapiens), P00533 [L861Q]; test: Inhibition of EGFR L861Q mutant (unknown origin) at 100 nM; type: protein assay
Epidermal growth factor receptor (Homo sapiens), P00533 [L861Q], sequence (P00533 whole entry L861Q): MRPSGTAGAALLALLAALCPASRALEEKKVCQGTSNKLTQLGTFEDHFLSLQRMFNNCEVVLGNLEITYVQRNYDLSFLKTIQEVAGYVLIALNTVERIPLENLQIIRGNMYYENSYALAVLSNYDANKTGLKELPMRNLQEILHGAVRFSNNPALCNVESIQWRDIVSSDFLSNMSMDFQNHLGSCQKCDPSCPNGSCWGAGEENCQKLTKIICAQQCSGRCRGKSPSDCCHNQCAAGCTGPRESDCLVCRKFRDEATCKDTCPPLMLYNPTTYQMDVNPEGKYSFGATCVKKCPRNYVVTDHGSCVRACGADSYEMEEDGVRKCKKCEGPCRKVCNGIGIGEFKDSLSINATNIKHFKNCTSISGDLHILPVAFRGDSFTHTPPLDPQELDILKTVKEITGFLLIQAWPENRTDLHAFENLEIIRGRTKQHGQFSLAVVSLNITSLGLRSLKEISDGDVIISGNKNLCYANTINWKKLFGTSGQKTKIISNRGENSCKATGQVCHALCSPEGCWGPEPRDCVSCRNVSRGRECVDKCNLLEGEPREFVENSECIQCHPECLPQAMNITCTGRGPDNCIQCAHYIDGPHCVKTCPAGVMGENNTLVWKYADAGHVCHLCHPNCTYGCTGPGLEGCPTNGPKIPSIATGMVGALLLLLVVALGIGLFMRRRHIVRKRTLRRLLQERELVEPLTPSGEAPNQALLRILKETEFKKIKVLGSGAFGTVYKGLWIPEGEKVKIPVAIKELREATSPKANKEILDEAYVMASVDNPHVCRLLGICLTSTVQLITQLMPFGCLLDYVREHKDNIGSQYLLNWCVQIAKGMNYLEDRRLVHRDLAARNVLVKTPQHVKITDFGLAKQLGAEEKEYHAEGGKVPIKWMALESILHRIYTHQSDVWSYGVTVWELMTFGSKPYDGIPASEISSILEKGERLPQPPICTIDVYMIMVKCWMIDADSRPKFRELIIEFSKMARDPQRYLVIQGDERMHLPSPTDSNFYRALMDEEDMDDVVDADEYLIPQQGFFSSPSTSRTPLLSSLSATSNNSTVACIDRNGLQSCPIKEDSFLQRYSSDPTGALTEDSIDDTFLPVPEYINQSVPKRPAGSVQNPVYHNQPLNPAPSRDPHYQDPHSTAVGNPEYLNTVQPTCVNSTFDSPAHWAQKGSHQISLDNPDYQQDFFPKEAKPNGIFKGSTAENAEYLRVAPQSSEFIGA

[30] = system: Epidermal growth factor receptor (Homo sapiens), P00533 [T790M]; test: Inhibition of EGFR T790M mutant (unknown origin) at 100 nM; type: protein assay
[31] = molecular target: Mitogen-activated protein kinase 1 (Homo sapiens) (UniProt P28482); test: Inhibition of ERK2 (unknown origin) at 100 nM
[32] = molecular target: Ephrin type-A receptor 2 (Homo sapiens) (UniProt P29317); test: Inhibition of EPHA2 (unknown origin) at 100 nM
[33] = molecular target: Protein-tyrosine kinase 2-beta (Homo sapiens) (UniProt Q14289); test: Inhibition of FAK2 (unknown origin) at 100 nM
[34] = molecular target: Fibroblast growth factor receptor 1 (Homo sapiens) (UniProt P11362); test: Inhibition of FGFR1 (unknown origin) at 100 nM
[35] = molecular target: Tyrosine-protein kinase Fyn (Homo sapiens) (UniProt P06241); test: Inhibition of FYN (unknown origin) at 100 nM
[36] = molecular target: Glycogen synthase kinase-3 beta (Homo sapiens) (UniProt P49841); test: Inhibition of GSK3beta (unknown origin) at 100 nM
[37] = molecular target: Insulin-like growth factor 1 receptor (Homo sapiens) (UniProt P08069); test: Inhibition of IGF1R (unknown origin) at 100 nM
[38] = molecular target: Inhibitor of nuclear factor kappa-B kinase subunit alpha (Homo sapiens) (UniProt O15111); test: Inhibition of IKKalpha (unknown origin) at 100 nM
[39] = molecular target: Interleukin-1 receptor-associated kinase 4 (Homo sapiens) (UniProt Q9NWZ3); test: Inhibition of IRAK4 (unknown origin) at 100 nM
[40] = molecular target: Tyrosine-protein kinase ITK/TSK (Homo sapiens) (UniProt Q08881); test: Inhibition of ITK (unknown origin) at 100 nM
[41] = molecular target: Tyrosine-protein kinase JAK2 (Homo sapiens) (UniProt O60674); test: Inhibition of JAK2 JH1JH2 domain (unknown origin) at 100 nM
[42] = molecular target: Tyrosine-protein kinase Lck (Homo sapiens) (UniProt P06239); test: Inhibition of LCK (unknown origin) at 100 nM
Tyrosine-protein kinase Lck (Homo sapiens), sequence (P06239 2-509 limits assumed): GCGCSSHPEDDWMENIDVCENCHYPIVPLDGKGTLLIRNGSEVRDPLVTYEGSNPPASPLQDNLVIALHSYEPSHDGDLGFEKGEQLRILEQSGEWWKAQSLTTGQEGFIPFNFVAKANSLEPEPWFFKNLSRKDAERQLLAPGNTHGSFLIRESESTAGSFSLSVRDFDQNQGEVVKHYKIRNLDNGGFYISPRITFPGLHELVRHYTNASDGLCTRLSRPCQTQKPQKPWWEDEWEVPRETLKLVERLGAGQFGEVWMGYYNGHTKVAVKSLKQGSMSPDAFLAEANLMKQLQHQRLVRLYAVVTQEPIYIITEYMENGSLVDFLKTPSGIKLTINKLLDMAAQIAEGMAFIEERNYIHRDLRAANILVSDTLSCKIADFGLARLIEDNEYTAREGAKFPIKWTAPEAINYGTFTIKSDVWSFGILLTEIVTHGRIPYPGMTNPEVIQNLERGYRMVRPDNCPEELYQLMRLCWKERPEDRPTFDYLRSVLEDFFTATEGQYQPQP

[43] = molecular target: Serine/threonine-protein kinase Chk1 (Homo sapiens) (UniProt O14757); test: Inhibition of CHK1 (unknown origin) at 100 nM
[44] = system: Hepatocyte; test: Drug metabolism in rat hepatocytes assessed as glucuronidation; type: ADME, cell-based

Question: What does the source list for CC1(C)OCc2c(Nc3n[nH]c4ccccc34)nc(-c3cn[nH]c3)nc21?
Answer: inhibition [1]: 1.9%; inhibition [2]: 2%; inhibition [3]: 49.3%; inhibition [4]: 2.3%; inhibition [5]: 7.9%; inhibition [6]: 18%; inhibition [7]: 0.2%; inhibition [8]: 35.2%; inhibition [9]: 18.8%; inhibition [10]: 35.1%; inhibition [11]: -3.1%; inhibition [12]: 13.9%; inhibition [13]: 47.3%; inhibition [14]: 4.9%; inhibition [15]: 9.2%; inhibition [16]: -1.6%; inhibition [17]: 20.6%; efflux ratio [18]: 2.4; Ki [19]: 2 nM; Ki [20]: 0.5 nM; Ki [21]: 0.2 nM; Ki [22]: 1.6 nM; inhibition [23]: -2.5%; inhibition [24]: 1.9%; inhibition [25]: 14.3%; inhibition [26]: 9.1%; inhibition [27]: 97.4%; inhibition [28]: 97.7%; inhibition [29]: 99.7%; inhibition [30]: 95.2%; inhibition [31]: 1.2%; inhibition [32]: 12.2%; inhibition [33]: 9.7%; inhibition [34]: 27.7%; inhibition [35]: 79.6%; inhibition [36]: 41.9%; inhibition [37]: 4.4%; inhibition [38]: -5.3%; inhibition [39]: 4.3%; inhibition [40]: 4%; inhibition [41]: 1.9%; inhibition [42]: 50.6%; inhibition [43]: 2.7%

Question: Which inhibition [1] does the source give for CC1(C)OCc2c(Nc3n[nH]c4c(Cl)cccc34)nc(-c3cn[nH]c3)nc21 here?
Answer: The inhibition was 2.1%.

Question: What about the inhibition [2] of the same compound?
Answer: Its inhibition is 4.3%.

Question: What about the inhibition [5] of the same compound?
Answer: The inhibition was 7.7%.

Question: What about the inhibition [6] of the same compound?
Answer: The inhibition was -0.3%.

Question: What about the inhibition [7] of the same compound?
Answer: The inhibition was -3.1%.

Question: And the inhibition [8]?
Answer: The inhibition was 10.8%.

Question: And the inhibition [10]?
Answer: The inhibition was 33%.

Question: What about the inhibition [11] of the same compound?
Answer: The inhibition was 27.8%.

Question: And the inhibition [12]?
Answer: The inhibition was 19.5%.

Question: What about the inhibition [13] of the same compound?
Answer: Its inhibition is 66.5%.

Question: What about the inhibition [14] of the same compound?
Answer: The inhibition was 2%.

Question: What about the inhibition [15] of the same compound?
Answer: Its inhibition is 3.5%.

Question: And the inhibition [16]?
Answer: The inhibition was 8.7%.

Question: And the inhibition [17]?
Answer: The inhibition was 22.4%.

Question: What about the efflux ratio [18] of the same compound?
Answer: Its efflux ratio is 1.6.

Question: And the Ki [19]?
Answer: The Ki was 2 nM.

Question: What about the Drug metabolism [44] of the same compound?
Answer: The Drug metabolism was “metabolite_detected”.

Question: And the Ki [20]?
Answer: The Ki was 1.3 nM.

Question: What about the Ki [21] of the same compound?
Answer: The Ki was 0.4 nM.

Question: What about the Ki [22] of the same compound?
Answer: Its Ki is 1.3 nM.

Question: And the inhibition [23]?
Answer: The inhibition was 16.4%.

Question: And the inhibition [24]?
Answer: Its inhibition is 5.3%.

Question: What about the inhibition [26] of the same compound?
Answer: The inhibition was 7.4%.

Question: And the inhibition [27]?
Answer: The inhibition was 93.7%.

Question: And the inhibition [28]?
Answer: Its inhibition is 90.5%.

Question: What about the inhibition [29] of the same compound?
Answer: Its inhibition is 95.2%.

Question: And the inhibition [30]?
Answer: Its inhibition is 91.3%.

Question: What about the inhibition [31] of the same compound?
Answer: Its inhibition is -3.5%.

Question: And the inhibition [32]?
Answer: Its inhibition is 11.8%.

Question: And the inhibition [33]?
Answer: The inhibition was 9.1%.

Question: What about the inhibition [34] of the same compound?
Answer: Its inhibition is 85.1%.

Question: And the inhibition [35]?
Answer: Its inhibition is 82%.

Question: What about the inhibition [36] of the same compound?
Answer: The inhibition was 61%.

Question: What about the inhibition [37] of the same compound?
Answer: The inhibition was 13.5%.

Question: What about the inhibition [38] of the same compound?
Answer: The inhibition was -1.8%.

Question: What about the inhibition [39] of the same compound?
Answer: The inhibition was 16.9%.

Question: What about the inhibition [40] of the same compound?
Answer: The inhibition was 2%.

Question: What about the inhibition [41] of the same compound?
Answer: Its inhibition is 14%.

Question: And the inhibition [42]?
Answer: The inhibition was 86.9%.

Question: And the inhibition [43]?
Answer: Its inhibition is 5.3%.
